Laboratory results published in patent US20190297888A1, “FUNGICIDAL COMPOUNDS AND MIXTURES FOR FUNGAL CONTROL IN CEREALS” (Dow AgroSciences LLC, priority 2016, published 2019).

Legend:
Format in all cases: in vivo
[1] = tested on: Puccinia striiformis (PUCCST); assay: Field assessment of Compound I and penthiopyrad on yellow rust of wheat (AUDPC % control); conditions: AUDPC-based, 2 field trials
Description: Treatments consisting of the compound of Formula I and fungicide compound penthiopyrad were applied either using individually or as a two-way mixture of penthiopyrad with the compound of Formula I. The compound of Formula I was applied with Agnique BP-420 (50% w/w at 0.3% v/v) at 75 and 150 g ai/ha and Penthiopyrad (Vertisan) was applied at 125 and 200 g ai/ha. Commercial standards used in the studies were Fluxapyroxad (Imtrex), applied at 100 g ai/ha, and Metconazole+Fluxapyroxad (Librax), applied at 161 g ai/ha.
Fungicidal treatments containing the compound of Formula I and penthiopyrad, either individually or as a two-way mixture, were assessed against yellow rust of wheat (PUCCST) in two separate field trials. In the first trial, fungicidal treatments were applied twice at B31-32 (early curative, 2% infection at application on L3) and B37-39 (0% infection at application on L) growth stages of winter wheat (TRZAW, Fairplay variety). The treatments were part of an experimental trial designed as a randomized complete block with four replications and a plot of approximately 1×6 m. Treatments were applied at water volume of 200 L/ha, using a backpack plot sprayer (BKPCKENG, F110-015 Hardi (3) Flat fan nozzle) and pressurized at 200 kPa.
In the second trial, fungicidal treatments containing the compound of Formula I and penthiopyrad, either individually or as a two-way mixture, were applied twice at B31-32 (early curative, 5% infection on L5 at application) and B37-39 (early curative, 5% infection on L1 and L2 at application) growth stages of wheat (TRZAW, Torch variety). The treatment was part of an experimental trial designed as a randomized complete block with four replications and a plot of approximately 2×3 m. Treatments were applied at water volume of 200 L/ha, using a backpack precision plot sprayer (BKCKAIR, F110-03 Hypro (4) Flat fan nozzle) and pressurized at 300 kPa.
(§1) Disease severity (percentage of visual diseased foliage on whole plot or leaves) in both field trials was recorded following EPPO PP1/26 guideline prescriptions. Area under the disease progress curve (AUDPC) was calculated for each plot in both trials using the sets of recorded severity data. Relative AUDPC (% control based on AUDPC) was calculated as percent of the nontreated control. Final results for the control of yellow rust of wheat by the compound of Formula I, penthiopyrad and mixtures are reported as an average of the relative AUDPC calculated over all three field trials. Statistical analysis was done according to ANOVA and Tukey's test (p=0.10).

[2] = tested on: Puccinia triticina (PUCCRT); assay: Field assessment of Compound I and fluxapyroxad on brown rust of wheat (AUDPC % control); conditions: AUDPC-based, 5 field trials
Description: Treatments consisting of the compound of Formula I and fungicide compound fluxapyroxad against fungal diseases of wheat were applied either using individually or as a two-way mixture of fluxapyroxad with the compound of Formula I. The compound of Formula I was applied with Agnique BP-420 (50% w/w at 0.3% v/v) at 50, 75 and 100 g ai/ha and Imtrex (Fluxapyroxad 62.5 g/L) was applied at 50, 75 and 100 g ai/ha. Commercial standards used in the studies were Adexar (epoxiconazole+fluxapyroxad—125 g/L), applied at 1.2 and 1.6 L pr/ha, and Elatus Era (benzovindiflupyr+prothioconazole—225 g/L), applied at 1.0 L pr/ha.
Fungicidal treatments containing the compound of Formula I and fluxapyroxad, either individually or as a two-way mixture, were assessed against brown rust of wheat (PUCCRT) in five separate field trials. In all trials, fungicidal treatments were applied at B34-51 growth stages of winter wheat (TRZAW; ATOUDUR, MIRADOUX, IRIDIUM or MV Vanek variety) under natural infection of brown rust (protectant tests, approximately 0-8% infection on leaf 3 or 4 at application). All treatments were part of an experimental trial designed as a randomized complete block with four replications and plot sizes of approximately 2×2 m to 2×7.5 m. Fungicidal treatments were applied at a water volume of 200 L/ha, using a backpack plot sprayer (BKPKAIR or BKPCENG) with a FLATFAN or AIRASST Nozzle pressurized at 210-250 kPa.
as §1, with “leaves) in five field trials” for “leaves) in both field trials”, “control of brown rust of” for “control of yellow rust of”, “Formula I, fluxapyroxad and mixtures” for “Formula I, penthiopyrad and mixtures”, “over all five field trials.” for “over all three field trials.”

[3] = tested on: Pyrenophora teres (PYRNTE); assay: Field assessment of Compound I and fluxapyroxad on net blotch of barley (AUDPC % control); conditions: AUDPC-based, 2 field trials
Method: Commercial standards used in the studies were Proline 275 (275 g ai/L Prothioconazole), applied at 150 g ai/ha, and SiltraXpro (200 g ai/L prothioconazole+60 g ai/[…] bixafen), applied at 195 g ai/ha.
Fungicidal treatments containing the compound of Formula I and fluxapyroxad, either individually or as a two-way mixture, were assessed against net blotch of barley (PYRNTE) in two separate field trials. In both trials, fungicidal treatments were applied at B31-37 growth stages of winter barley and sprong barley (HORVW, Lomeritt variety; HORVS, Scarlett variety) under natural infection of net blotch (protectant tests, 1% infection on leaf 4 and 10% infection on leaf 6 at application). All treatments were part of an experimental trial designed as a randomized complete block with four replications.
Disease severity (percentage of visual diseased foliage on whole plot or leaves) in both field trials was recorded following EPPO PP1/26 guideline prescriptions. Area under the disease progress curve (AUDPC) was calculated for each plot in both trials using the sets of recorded severity data. Relative AUDPC (% control based on AUDPC) was calculated as percent of the nontreated control. […] Statistical analysis was done according to ANOVA and Tukey's test (p=0.10).

## N#Cc1ccc(Oc2ccc(C(F)(F)C(O)(Cn3ncnc3S)c3ccc(F)cc3F)nc2)cc1 (centres unmarked) [Compound I, 4-((6-(2-(2,4-difluorophenyl)-1,1-difluoro-2-hydroxy-3-(5-mercapto-1H-1,2,4-triazol-1-yl)propyl)pyridin-3-yl)oxy)benzonitrile]
[1]; rate 75 g ai/ha
  PUCCST % Control: 72.8%
[1]; rate 150 g ai/ha
  PUCCST % Control: 76.4%
[2]; rate 50 g ai/ha
  PUCCRT % Control: 86.0%
[2]; rate 75 g ai/ha
  PUCCRT % Control: 90.0%
[2]; rate 100 g ai/ha
  PUCCRT % Control: 93.4%
[3]; rate 75 g ai/ha
  PYRNTE % Control: 8.66%
[3]; rate 100 g ai/ha
  PYRNTE % Control: 23.5%
[3]; rate 150 g ai/ha
  PYRNTE % Control: 40.8%

## Cn1cc(C(=O)Nc2ccccc2-c2cc(F)c(F)c(F)c2)c(C(F)F)n1 [Fluxapyroxad, 3-(difluoromethyl)-1-methyl-N-(3′,4′,5′-trifluorobiphenyl-2-yl)pyrazole-4-carboxamide]
[2]; rate 50 g ai/ha
  PUCCRT % Control: 84.0%
[2]; rate 75 g ai/ha
  PUCCRT % Control: 94.0%
[2]; rate 100 g ai/ha
  PUCCRT % Control: 95.3%
[3]; rate 45 g ai/ha
  PYRNTE % Control: 66.5%
[3]; rate 62.5 g ai/ha
  PYRNTE % Control: 73.4%
[3]; rate 100 g ai/ha
  PYRNTE % Control: 83.2%
